# Assays:
# Assay type in all cases: in vivo, human
# [1] = tested on: patient with ADHD; assay: Frequency analysis (FFT) of closed-eye movement signal before/after medication, Example 5; conditions: one tablet of 10 mg
# Description: (§1) Strain gauge sensors (SleepSense Limb Movement Sensors) from SleepSense were used as eye movement sensors. These where connected to a Digital Brain Electric Activity Mapping KT88 EEG apparatus as a recording and frequency analysis arrangement.
# (§2) The subjects were instructed to keep their eyes closed, but to refrain from falling asleep.
# (§3) The signal from the sensors where filtered by one of two different filters; a 2.5 Hz low pass filter with 24 dB reduction.
# (§4) A signal was recorded over a period of 5 minutes. 1 minute of signal is illustrated in FIG. 3.
# Using eye movement signals recorded as explained in example 1, frequency analysis was performed to determine a frequency distribution. However, only a 10 seconds period corresponding to the first 10 seconds of the latency time of example 2 was used. A Fast Fourier Transformation (FFT) based algorithm was used, with a 100 mHz resolution.
# Using eye movement signals recorded as explained in example 1, frequency analysis was performed to determine a frequency distribution. A Fast Fourier Transformation (FFT) based algorithm was used, with a 100 mHz resolution.
# In example 5, signals were recorded on a patient with ADHD.
# On FIG. 6A is the result when the patient was in an initial, unmedicated state. […]
# [2] = tested on: patient with ADHD; assay: Number of large eye movements before/after medication, Example 5
# Description: as §1, §2, §3, §4
# A large eye movement number was established as the number of times the signals exceeded 50 μV, or moved below −50 μV. This signifies the number of large eye movements.
# On FIG. 6A is the result when the patient was in an initial, unmedicated state. A second measurement was made after administering suitable ADHD-medication to the patient (one tablet of 10 mg of methylphenidate), this is shown in FIG. 6B.
# Furthermore, the number of eye movements was analyzed as in example 1, before and after medication.
# [3] = tested on: subjects with ADHD; assay: Eye movement signal parameters before/after methylphenidate, ADHD subjects (Example 6.6)
# Description: as §1, §2, §3, §4
# (§5) Eye movement signals were recorded using the methods described in example 1.
# Data from 7 subjects with ADHD examined before treatment. Hereafter methylphenidate was administered, and after a subjective assessment of an effect thereof, the measurement was repeated. The sensors were in place during the entire test.
# [4] = tested on: subjects with ADD; assay: Eye movement signal parameters before/after methylphenidate, ADD subjects (Example 6.6)
# Description: as §1, §2, §3, §4, §5
# In 3 out of 4 cases, an increase in the amplitude and a decrease in the average frequency was observed.
# [5] = tested on: subjects with an AHDH or ADD diagnosis; assay: Maximum FFT amplitude before/after startup of methylphenidate treatment (Example 7.3); conditions: for decrease in eye activity (RC): no positive effect of the treatment
# Description: A number of sample signals were recorded. Each sample was recorded over a period of 360 seconds. Only the middle 240 seconds are used, as the first 60 seconds and the last 60 second of the signal is discarded to avoid introducing artifacts related to the startup and termination of the test and the subject getting used to the eye sensors etc.
# The signals were subjected to frequency analysis by FFT with 100 mHz solution.
# Maximum amplitude of the frequency distribution (i.e. max FFT amplitude) is identified.
# 20 subjects with an AHDH or ADD diagnosis were evaluated with respect to effect of startup of methylphenidate treatment. A sample was recorded for each subject in accordance with example 7.2, and a maximum FFT amplitude was outputted from the frequency analysis arrangement (maximum FFT amplitude before, MAB). Thereafter, a startup dose of methylphenidate was prescribed for each subject. After ingestion, a further sample was recorded for each subject, and a maximum FFT amplitude was outputted from the frequency analysis arrangement (maximum FFT amplitude after, MAA).
smiles,measurement,setting,value
COC(=O)C(c1ccccc1)C1CCCCN1 (centres unmarked) [methylphenidate],"maximum value of frequency components after medication, reduction to","[1]; 10 s period, FIG. 6C vs 6D",~20%
same,"frequency content after medication, reduction to","[1]; 5 min signal, FIG. 6A vs 6B",~50%
same,Number of eye movements after medication,"[2]; 1-60 s, signal exceeding +/− 50 μV, before 54",60
same,Number of eye movements after medication,"[2]; 61-120 s, before 15",0
same,Number of eye movements after medication,"[2]; 121-180 s, before 23",2
same,Number of eye movements after medication,"[2]; 181-240 s, before 16",1
same,Number of eye movements after medication,"[2]; 241-300 s, before 14",2
same,cases with a fall in the amplitude and an increase in the average frequency,"[3]; of 7 subjects with ADHD, after methylphenidate",6 cases
same,DATA B Av Fq,"[3]; subject 143/144, after treatment, before 3.241667",4.858
same,DATA B FFT Amplitude,"[3]; subject 143/144, after treatment, before 15",7
same,DATA B Av Amp,"[3]; subject 143/144, after treatment, before −0.37474",0.001138
same,DATA B Av Fq,"[3]; subject 167/168, after treatment, before 4.511667",4.647
same,DATA B FFT Amplitude,"[3]; subject 167/168, after treatment, before 10",9.6
same,DATA B Av Amp,"[3]; subject 167/168, after treatment, before −0.199017",0.04479
same,DATA B Av Amp,"[3]; subject 177/178, after treatment, before 0.578600",0.5056
same,DATA B Av Fq,"[3]; subject 177/178, after treatment, before 2.05333",2.23
same,DATA B FFT Amplitude,"[3]; subject 177/178, after treatment, before 28",26
same,DATA B Av Amp,"[3]; subject 179/180, after treatment, before 0.002030",0.04999
same,DATA B Av Fq,"[3]; subject 179/180, after treatment, before 3.07500",3.695
same,DATA B FFT Amplitude,"[3]; subject 179/180, after treatment, before 9.5",4.1
same,DATA B Av Amp,"[3]; subject 187/188, after treatment, before 0.061771",0.09263
same,DATA B Av Fq,"[3]; subject 187/188, after treatment, before 2.73667",2.553
same,DATA B FFT Amplitude,"[3]; subject 187/188, after treatment, before 9.5",12
same,DATA B Av Amp,"[3]; subject 189/190, after treatment, before 0.012759",0.007571
same,DATA B Av Fq,"[3]; subject 189/190, after treatment, before 3.79500",3.947
same,DATA B FFT Amplitude,"[3]; subject 189/190, after treatment, before 8.5",5.0
same,DATA B Av Amp,"[3]; subject 192/193, after treatment, before 0.046206",0.000667
same,DATA B Av Fq,"[3]; subject 192/193, after treatment, before 2.425000",4.838
same,DATA B FFT Amplitude,"[3]; subject 192/193, after treatment, before 22",8.0
same,cases with an increase in the amplitude and a decrease in the average frequency,[4]; out of 4 ADD subjects treated with methylphenidate,3 cases
same,DATA B Av Amp,"[4]; subject 146/147, after treatment, before 0.031965",0.03275
same,DATA B FFT Amplitude,"[4]; subject 146/147, after treatment, before 3",6.1
same,DATA B Av Fq,"[4]; subject 146/147, after treatment, before 5.07667",4.083
same,DATA B Av Amp,"[4]; subject 152/153, after treatment, before 0.061080",0.04852
same,DATA B Av Fq,"[4]; subject 152/153, after treatment, before 3.62833",4.618
same,DATA B FFT Amplitude,"[4]; subject 152/153, after treatment, before 5.5",4.2
same,DATA B Av Amp,"[4]; subject 170/171, after treatment, before 0.030927",0.02591
same,DATA B FFT Amplitude,"[4]; subject 170/171, after treatment, before 2.5",2.6
same,DATA B Av Fq,"[4]; subject 170/171, after treatment, before 5.80555",5.523
same,DATA B Av Amp,"[4]; subject 184/185, after treatment, before 0.054841",0.05472
same,DATA B Av Fq,"[4]; subject 184/185, after treatment, before 4.42333",3.64
same,DATA B FFT Amplitude,"[4]; subject 184/185, after treatment, before 5.0",8.0
same,Eff. M.: Evaluation of effect of methylphenidate,[5]; subject 143 ADHD,Good
same,RC: relative change in FFT amplitude,[5]; subject 143 ADHD,−53
same,MAA: Maximum FFT amplitude after,"[5]; subject 143 ADHD, MAB 14.3",6.7
same,Eff. M.: Evaluation of effect of methylphenidate,[5]; subject 146,No
same,RC: relative change in FFT amplitude,[5]; subject 146,100
same,MAA: Maximum FFT amplitude after,"[5]; subject 146, MAB 2.8",5.6
same,Eff. M.: Evaluation of effect of methylphenidate,[5]; subject 148 ADHD,Good
same,RC: relative change in FFT amplitude,[5]; subject 148 ADHD,−60
same,MAA: Maximum FFT amplitude after,"[5]; subject 148 ADHD, MAB 8.7",3.5
same,Eff. M.: Evaluation of effect of methylphenidate,[5]; subject 152,Good
same,RC: relative change in FFT amplitude,[5]; subject 152,−56
same,MAA: Maximum FFT amplitude after,"[5]; subject 152, MAB 4.58",2.0
same,Eff. M.: Evaluation of effect of methylphenidate,[5]; subject 155,No
same,RC: relative change in FFT amplitude,[5]; subject 155,17
same,MAA: Maximum FFT amplitude after,"[5]; subject 155, MAB 3.6",4.2
same,decrease in eye activity (RC),[5]; subject 177,below 10%
same,Eff. M.: Evaluation of effect of methylphenidate,[5]; subject 177 ADHD,No
same,RC: relative change in FFT amplitude,[5]; subject 177 ADHD,−7
same,MAA: Maximum FFT amplitude after,"[5]; subject 177 ADHD, MAB 26.7",24.8
same,Eff. M.: Evaluation of effect of methylphenidate,[5]; subject 179 ADHD,Good
same,RC: relative change in FFT amplitude,[5]; subject 179 ADHD,−65
same,MAA: Maximum FFT amplitude after,"[5]; subject 179 ADHD, MAB 8.9",3.1
same,Eff. M.: Evaluation of effect of methylphenidate,[5]; subject 184,Good
same,RC: relative change in FFT amplitude,[5]; subject 184,65
same,MAA: Maximum FFT amplitude after,"[5]; subject 184, MAB 4.8",7.9
same,Eff. M.: Evaluation of effect of methylphenidate,[5]; subject 187 ADHD,Good
same,RC: relative change in FFT amplitude,[5]; subject 187 ADHD,19
same,MAA: Maximum FFT amplitude after,"[5]; subject 187 ADHD, MAB 9.0",10.7
same,Eff. M.: Evaluation of effect of methylphenidate,[5]; subject 189,Good
same,RC: relative change in FFT amplitude,[5]; subject 189,−39
same,MAA: Maximum FFT amplitude after,"[5]; subject 189, MAB 9.0",5.5
same,Eff. M.: Evaluation of effect of methylphenidate,[5]; subject 192 ADHD,Good
same,RC: relative change in FFT amplitude,[5]; subject 192 ADHD,−66
same,MAA: Maximum FFT amplitude after,"[5]; subject 192 ADHD, MAB 21.4",7.3
same,Eff. M.: Evaluation of effect of methylphenidate,[5]; subject 197,Good
same,RC: relative change in FFT amplitude,[5]; subject 197,−56
same,MAA: Maximum FFT amplitude after,"[5]; subject 197, MAB 14.2",6.2
same,Eff. M.: Evaluation of effect of methylphenidate,[5]; subject 202 ADHD,No
same,RC: relative change in FFT amplitude,[5]; subject 202 ADHD,33
same,MAA: Maximum FFT amplitude after,"[5]; subject 202 ADHD, MAB 34.4",45.9
same,Eff. M.: Evaluation of effect of methylphenidate,[5]; subject 204 ADHD,Good
same,RC: relative change in FFT amplitude,[5]; subject 204 ADHD,−66
same,MAA: Maximum FFT amplitude after,"[5]; subject 204 ADHD, MAB 6.2",2.1
same,Eff. M.: Evaluation of effect of methylphenidate,[5]; subject 210 ADHD,No
same,RC: relative change in FFT amplitude,[5]; subject 210 ADHD,14
same,MAA: Maximum FFT amplitude after,"[5]; subject 210 ADHD, MAB 7.6",8.7
same,Eff. M.: Evaluation of effect of methylphenidate,[5]; subject 212,No
same,RC: relative change in FFT amplitude,[5]; subject 212,27
same,MAA: Maximum FFT amplitude after,"[5]; subject 212, MAB 13.1",16.7
same,Eff. M.: Evaluation of effect of methylphenidate,[5]; subject 248 ADHD,No
same,RC: relative change in FFT amplitude,[5]; subject 248 ADHD,14
same,MAA: Maximum FFT amplitude after,"[5]; subject 248 ADHD, MAB 15.9",18.2
same,Eff. M.: Evaluation of effect of methylphenidate,[5]; subject 250,Good
same,RC: relative change in FFT amplitude,[5]; subject 250,−24
same,MAA: Maximum FFT amplitude after,"[5]; subject 250, MAB 15.8",12.0
same,Eff. M.: Evaluation of effect of methylphenidate,[5]; subject 255,Good
same,RC: relative change in FFT amplitude,[5]; subject 255,−30
same,MAA: Maximum FFT amplitude after,"[5]; subject 255, MAB 22.9",16.0
same,Eff. M.: Evaluation of effect of methylphenidate,[5]; subject 258,No
same,RC: relative change in FFT amplitude,[5]; subject 258,−2
same,MAA: Maximum FFT amplitude after,"[5]; subject 258, MAB 11.2",11.0
same,decrease in eye activity (RC),[5]; subject 258,below 10%

# From patent US20220000403A1, “NEUROT[…] DETECTION SYSTEM AND METHOD OF DETECTING A NEUROT[…]” (Ocumove ApS, priority 2018, published 2022)
